According to the NIST ThermoML archive (doi:10.1016/j.tca.2019.178334):
Numbers after ± are expanded uncertainties.

Assay: excess molar enthalpy (molar enthalpy of mixing); xn = mol fraction of the nth substance listed
Conditions: 933 K, 101 kPa, Liquid, Calvet calorimetry

[Cl-].[Li+] [lithium chloride] + [Cl-].[K+]
Conditions | excess molar enthalpy [kcal/mol]
x2 = 0 | 0 ± 0.000239
x2 = 0.026 | -0.117 ± 0.0098
x2 = 0.061 | -0.239 ± 0.0143
x2 = 0.073 | -0.308 ± 0.0165
x2 = 0.105 | -0.372 ± 0.0198
x2 = 0.128 | -0.488 ± 0.0263
x2 = 0.162 | -0.542 ± 0.0287
x2 = 0.188 | -0.638 ± 0.0335
x2 = 0.214 | -0.705 ± 0.0359
x2 = 0.24 | -0.781 ± 0.0406
x2 = 0.275 | -0.861 ± 0.043
x2 = 0.298 | -0.884 ± 0.0454
x2 = 0.33 | -0.965 ± 0.0478
x2 = 0.371 | -1.02 ± 0.0526
x2 = 0.418 | -1.06 ± 0.055
x2 = 0.427 | -1.04 ± 0.0526
